Reference: patent US6359181B1, “Cyclopentane 1-hydroxy alkyl or alkenyl-2-one or 2-hydroxy derivatives as therapeutic agents” (Allergan Sales, Inc., priority 2000, dated 2002)

Tests used:
ocular surface = conditions: topical ocular use in humans; cited from earlier work
intraocular pressure = conditions: ocular; compared with PGF2α; cited from earlier work
Dog intraocular pressure = assay: Intraocular pressure in dogs by applanation pneumatonometry; format: in vivo; conditions: 25 μl to the ocular surface, IOP before and at 6 hours after administration, FIG. 9
Description: The compounds were prepared at the said concentrations in a vehicle comprising 0.1% polysorbate 80 and 10 mM TRIS base. Dogs were treated by administering 25 μl to the ocular surface, the contralateral eye received vehicle as a control. Intraocular pressure was measured by applanation pneumatonometry. Dog intraocular pressure was measured immediately before drug administration and at 6 hours thereafter.

Compound | ocular side effects (ocular surface) | hypotensive potency versus parent compound (intraocular pressure) | ocular hypotensive effect (Dog intraocular pressure)
CCCCC[C@H](O)/C=C/[C@@H]1[C@@H](C/C=C\CCCC(=O)OC(C)C)[C@@H](O)C[C@H]1O [isopropyl ester of PGF2α] | ocular surface (conjunctival) hyperemia and foreign-body sensation | significantly greater hypotensive potency than the parent compound | 
CC(=O)OCC(=O)CCC/C=C\C[C@@H]1[C@@H](/C=C/[C@@H](O)CCc2ccc(Cl)s2)[C@H](OC(C)=O)C[C@@H]1O [Example 102, Acetic Acid (Z)-8-{(1R,2R,3R,5S)-3-acetoxy-2-[(S)-(E)-5-(5-chloro-thiophen-2-yl)-3-hydroxy-pent-1-enyl]-5-hydroxy-cyclopentyl}-2-oxo-oct-6-enyl Ester] |  |  | pronounced ocular hypotensive effect
CCCCC[C@H](O)/C=C/[C@@H]1[C@@H](C/C=C\CCCC(=O)O)[C@@H](O)C[C@H]1O [PGF2α, (Z)-7-[(1R,2R,3R,5S)-3,5-Dihydroxy-2-((S)-(E)-3-hydroxyoct-1-enyl)-cyclopentyl]hept-5-enoic Acid] | ocular surface (conjunctival) hyperemia and foreign-body sensation |  | 
CC(=O)OCC(=O)CCC/C=C\C[C@@H]1[C@@H](/C=C/[C@@H](O)CCc2ccc(Cl)s2)[C@H](O)C[C@@H]1O [Example 101, Acetic Acid (Z)-8-{(1R,2R,3R,5S)-2-[(S)-(E)-5-(5-chloro-thiophen-2-yl)-3-hydroxy-pent-1-enyl]-3,5-dihydroxy-cyclopentyl}-2-oxo-oct-6-enyl Ester] |  |  | pronounced ocular hypotensive effect
